Experimental data as given in ChEMBL document CHEMBL3885861, “Open TG-GATES”.

Species: Rattus norvegicus
Test: Open TG-GATES - Regimen: Single
Assay type: toxicity, organism-based, Sprague-Dawley
Set-up: regimen Single, gender Male, age 6 weeks
Details: in vivo, po, 0 mg/kg, route gavage, dose level Control; for APTT / Bas / Eos / Fbg / Hb / Ht / Lym / MCH / MCHC / MCV / Mono / Neu / PT / Plat / RBC / Ret / WBC: tissue Blood; for KIDNEY_L / KIDNEY_R / KIDNEY_TOTAL: tissue Kidney; for LIVER: tissue Liver; for A/G / ALP / ALT / AST / BUN / CRE / Ca / Cl / DBIL / GLC / IP / K / LDH / Na / PL / RALB / TBIL / TC / TG / TP / gamma-GTP: tissue Plasma

Compound: CC[C@H]1[C@@H]2C[C@H]3[C@@H]4N(C)c5ccccc5[C@]45C[C@@H]([C@@H]2[C@H]5O)N3[C@@H]1O [AJMALINE]
- TERMINAL_BW (3 h): 194.6 g
- APTT (3 h): 16.6 s
- Bas (3 h): 0%
- Eos (3 h): 1%
- Fbg (3 h): 202.8 mg/dL
- Hb (3 h): 12.8 g/dL
- Ht (3 h): 39.1%
- Lym (3 h): 80.2%
- MCH (3 h): 21.8 pg
- MCHC (3 h): 32.9%
- MCV (3 h): 66.3 fL
- Mono (3 h): 6.8%
- Neu (3 h): 12.2%
- PT (3 h): 11.6 s
- Plat (3 h): 109.9 x10_4/uL
- RBC (3 h): 589.2 x10_4/ul
- Ret (3 h): 12.5%
- WBC (3 h): 94.6 x10_2/uL
- KIDNEY_L (3 h): 0.9 g
- KIDNEY_R (3 h): 0.9 g
- KIDNEY_TOTAL (3 h): 1.9 g
- LIVER (3 h): 9.4 g
- A/G (3 h): 2.5
- ALP (3 h): 879.4 IU/L
- ALT (3 h): 34.6 IU/L
- AST (3 h): 66.8 IU/L
- BUN (3 h): 10.6 mg/dL
- CRE (3 h): 0.4 mg/dL
- Ca (3 h): 11.4 mg/dL
- Cl (3 h): 100.8 meq/L
- DBIL (3 h): 0.04 mg/dL
- GLC (3 h): 191.4 mg/dL
- IP (3 h): 9.5 mg/dL
- K (3 h): 4.4 meq/L
- LDH (3 h): 95.4 IU/L
- Na (3 h): 137.2 meq/L
- PL (3 h): 149 mg/dL
- RALB (3 h): 3.7 g/dL
- TBIL (3 h): 0.3 mg/dL
- TC (3 h): 82.4 mg/dL
- TG (3 h): 69.4 mg/dL
- TP (3 h): 5.3 g/dL
- gamma-GTP (3 h): 2 IU/L
- TERMINAL_BW (6 h): 192.3 g
- APTT (6 h): 16.9 s
- Bas (6 h): 0%
- Eos (6 h): 1.2%
- Fbg (6 h): 196.2 mg/dL
- Hb (6 h): 13 g/dL
- Ht (6 h): 39.5%
- Lym (6 h): 73.4%
- MCH (6 h): 21.5 pg
- MCHC (6 h): 32.8%
- MCV (6 h): 65.3 fL
- Mono (6 h): 10.6%
- Neu (6 h): 15%
- PT (6 h): 11.6 s
- Plat (6 h): 113.8 x10_4/uL
- RBC (6 h): 605.4 x10_4/ul
- Ret (6 h): 10.6%
- WBC (6 h): 102.3 x10_2/uL
- KIDNEY_L (6 h): 0.9 g
- KIDNEY_R (6 h): 0.9 g
- KIDNEY_TOTAL (6 h): 1.7 g
- LIVER (6 h): 8.3 g
- A/G (6 h): 2.2
- ALP (6 h): 832.4 IU/L
- ALT (6 h): 34.6 IU/L
- AST (6 h): 61.8 IU/L
- BUN (6 h): 9.6 mg/dL
- CRE (6 h): 0.5 mg/dL
- Ca (6 h): 10.7 mg/dL
- Cl (6 h): 103.4 meq/L
- DBIL (6 h): 0.042 mg/dL
- GLC (6 h): 187 mg/dL
- IP (6 h): 10 mg/dL
- K (6 h): 4.8 meq/L
- LDH (6 h): 72.6 IU/L
- Na (6 h): 138.8 meq/L
- PL (6 h): 133.2 mg/dL
- RALB (6 h): 3.5 g/dL
- TBIL (6 h): 0.4 mg/dL
- TC (6 h): 83.6 mg/dL
- TG (6 h): 64.8 mg/dL
- TP (6 h): 5.2 g/dL
- gamma-GTP (6 h): 1.6 IU/L
- TERMINAL_BW (9 h): 192.7 g
- APTT (9 h): 17.8 s
- Bas (9 h): 0%
- Eos (9 h): 1%
- Fbg (9 h): 199.4 mg/dL
- Hb (9 h): 12.7 g/dL
- Ht (9 h): 38.6%
- Lym (9 h): 79.6%
- MCH (9 h): 22.2 pg
- MCHC (9 h): 32.9%
- MCV (9 h): 67.5 fL
- Mono (9 h): 7.8%
- Neu (9 h): 11.6%
- PT (9 h): 12.3 s
- Plat (9 h): 114.2 x10_4/uL
- RBC (9 h): 573.2 x10_4/ul
- Ret (9 h): 9.6%
- WBC (9 h): 93.3 x10_2/uL
- KIDNEY_L (9 h): 0.9 g
- KIDNEY_R (9 h): 0.9 g
- KIDNEY_TOTAL (9 h): 1.8 g
- LIVER (9 h): 8.2 g
- A/G (9 h): 2.4
- ALP (9 h): 800.8 IU/L
- ALT (9 h): 32.6 IU/L
- AST (9 h): 63 IU/L
- BUN (9 h): 12.2 mg/dL
- CRE (9 h): 0.6 mg/dL
- Ca (9 h): 10.4 mg/dL
- Cl (9 h): 104.6 meq/L
- DBIL (9 h): 0.064 mg/dL
- GLC (9 h): 190.4 mg/dL
- IP (9 h): 10.4 mg/dL
- K (9 h): 4.9 meq/L
- LDH (9 h): 82 IU/L
- Na (9 h): 138.2 meq/L
- PL (9 h): 126.4 mg/dL
- RALB (9 h): 3.7 g/dL
- TBIL (9 h): 0.3 mg/dL
- TC (9 h): 74.6 mg/dL
- TG (9 h): 42.8 mg/dL
- TP (9 h): 5.2 g/dL
- gamma-GTP (9 h): 0.8 IU/L
- TERMINAL_BW (24 h): 206.2 g
- APTT (24 h): 16.5 s
- Bas (24 h): 0%
- Eos (24 h): 0.8%
- Fbg (24 h): 211.2 mg/dL
- Hb (24 h): 12.6 g/dL
- Ht (24 h): 38.2%
- Lym (24 h): 75%
- MCH (24 h): 21.6 pg
- MCHC (24 h): 33.1%
- MCV (24 h): 65.4 fL
- Mono (24 h): 8.4%
- Neu (24 h): 15.6%
- PT (24 h): 11.5 s
- Plat (24 h): 106.9 x10_4/uL
- RBC (24 h): 584.2 x10_4/ul
- Ret (24 h): 10.1%
- WBC (24 h): 107.2 x10_2/uL
- KIDNEY_L (24 h): 0.9 g
- KIDNEY_R (24 h): 0.9 g
- KIDNEY_TOTAL (24 h): 1.8 g
- LIVER (24 h): 10.2 g
- A/G (24 h): 2.1
- ALP (24 h): 885.6 IU/L
- ALT (24 h): 38.6 IU/L
- AST (24 h): 66.4 IU/L
- BUN (24 h): 16.8 mg/dL
- CRE (24 h): 0.6 mg/dL
- Ca (24 h): 11 mg/dL
- Cl (24 h): 102.6 meq/L
- DBIL (24 h): 0.026 mg/dL
- GLC (24 h): 202.2 mg/dL
- IP (24 h): 8.4 mg/dL
- K (24 h): 4.6 meq/L
- LDH (24 h): 86.8 IU/L
- Na (24 h): 140.6 meq/L
- PL (24 h): 146.8 mg/dL
- RALB (24 h): 3.6 g/dL
- TBIL (24 h): 0.3 mg/dL
- TC (24 h): 81 mg/dL
- TG (24 h): 103 mg/dL
- TP (24 h): 5.4 g/dL
- gamma-GTP (24 h): 1.2 IU/L
